Six molecules from paper PMC7346113, “Screening of Natural Stilbene Oligomers from Vitis vinifera for Anticancer Activity on Human Hepatocellular Carcinoma Cells” (Antioxidants, 2020) can be followed below.

Holding throughout (format): cell-based, human
Settings in all cases: mean ± standard error

The test system of one experiment is Hep3B. Briefly: Cell viability, crystal violet assay, Hep3B. From the text: (§1) The human hepatoma cell line HepG2 was obtained from the American Tissue Culture Collection (ATCC, Manassas, VA, USA). The human hepatoma cell line Hep3B was obtained from the European Collection of Authenticated Cell Cultures (ECACC, Porton Down, Salisbury, Wiltshire, UK). HH4 non-transformed human hepatocyte cell line (kindly provided by Dr. I. Fabregat, Molecular Oncology, Bellvitge Biomedical Research Institute, Spain) was established as described.
(§2) HepG2 and Hep3B cell lines were maintained in Eagle’s Minimum Essential Medium and HH4 cell line was grown in Ham´s F12 Nutrient Mixture (Sigma-Aldrich, St Louis, MO, USA). Both culture media were supplemented with 10% heat inactivated fetal bovine serum, 2 mM L-glutamine and antibiotics (0.1 mg/mL streptomycin and 100 U/mL penicillin) (Sigma-Aldrich, St Louis, MO, USA). Cell cultures were grown in an incubator at 37 °C with 5% CO2 atmosphere. After reaching approximately 80% of confluence, cells were detached in a solution of 0.1% trypsin and 0.04% EDTA and plated as required for further experiments.
(§3) Cell lines were seeded into 96-well plates at 5 × 10^3 (HepG2) and 3 × 10^3 (Hep3B and HH4) cells/well 24 h before treatment. Increasing concentrations of the monomer trans-resveratrol, the dimers ampelopsin A and trans-ε-viniferin and the tetramers isohopeaphenol, hopeaphenol, R2-viniferin and R-viniferin were then added and cells were incubated for 24, 48, and 72 h. Stilbenes were dissolved in dimethyl sulfoxide (DMSO), Sigma-Aldrich, St Louis, MO, USA) at a final concentration of 0.01%. The same amount of DMSO was added to control cells. After treatment, the cell viability was determined using the crystal violet assay. The absorbance was recorded at 590 nm in a Synergy HT microplate reader (BioTek, Winooski, VT, USA). Cell viability was calculated as the percentage of viable cells treated with stilbene versus untreated control cells using the following equation: Cell viability (%) = [OD (Treatment) − OD (Blank)]/[OD (Control) − OD (Blank)] × 100. The cytotoxic effect of stilbenes was determined by calculating IC50 values using non-linear regression analysis (GraphPad Prism 6, San Diego, CA, USA).
(§4) The statistical package SPSS 19.0 (SPSS Inc. Chicago, IL, USA) was used for data analysis. The results were expressed as mean ± standard error (SE) from at least three experiments. Statistical significance for the differences of the means was estimated by parametric Student’s t-test. Differences between means were considered statistically significant for p < 0.05. IC50 values were derived from fitting the data to a sigmoidal dose-response curve with a three-parameter logistic model using Graph Pad Prism 6.

The subject of a further experiment is HepG2. Kind of experiment: Cell viability, crystal violet assay, HepG2.
Source text: as §1, §2, §3, §4

In another experiment the test system is HH4. Briefly: Cell viability, crystal violet assay, HH4 non-transformed hepatocytes.
Source text: as §1, §2, §3, §4

Setting [1] is: Homo sapiens, HepG2, 24 h, 24 h.
Where [2] appears, read: Homo sapiens, HepG2, 48 h, 48 h.
Setting [3] is: Homo sapiens, HepG2, 72 h, 72 h.

Where only a bound is given, the exact number is not on record here.

For the molecule `Oc1ccc(/C=C/c2cc(O)cc3c2[C@@H](c2cc(O)cc(O)c2)[C@H](c2ccc(O)cc2)O3)cc1` [trans-ε-Viniferin], the IC50 with Hep3B (72 h) came to 63.1 ± 10.8 µM; in the experiment on Hep3B (Homo sapiens, Hep3B, 24 h) it was 108 ± 31.8 µM; in the experiment with Hep3B (Homo sapiens, Hep3B, 48 h), 73.9 ± 17.3 µM; in the experiment with Hep3B (Homo sapiens, Hep3B, 72 h), 63 µM; in the experiment with HepG2 (setting [1]) it was 140 ± 39.7 µM; in the experiment with HepG2 (setting [2]) it was 104 ± 19.2 µM. Also, the IC50 is 94.8 ± 28.3 µM in the experiment on HepG2 (setting [3]); 178 ± 20.5 µM with HH4 (72 h); greater than 200 µM in the experiment with HH4 (Homo sapiens, Hepatocyte, 24 h); 193 ± 21.1 µM in the experiment with HH4 (Homo sapiens, Hepatocyte, 48 h); 178 µM in the experiment on HH4 (Homo sapiens, Hepatocyte, 72 h).
For `Oc1ccc([C@@H]2c3c(O)cc(O)cc3[C@H]3c4c(cc(O)cc4[C@@H]2[C@H]2c4cc(O)cc5c4[C@H](c4cc(O)cc(O)c4[C@H]2c2ccc(O)cc2)[C@@H](c2ccc(O)cc2)O5)O[C@@H]3c2ccc(O)cc2)cc1` [Isohopeaphenol], the IC50 turned out to be 86.6 ± 11.7 µM in the experiment with Hep3B (Homo sapiens, Hep3B, 24 h); 37 ± 4.5 µM in the experiment on Hep3B (Homo sapiens, Hep3B, 48 h); 26 ± 3 µM in the experiment with Hep3B (Homo sapiens, Hep3B, 72 h); 54.1 ± 34 µM with HepG2 (72 h); 113 ± 33 µM in the experiment on HepG2 (setting [1]); 68.8 ± 31 µM in the experiment with HepG2 (setting [2]). In addition, the IC50 with HepG2 (setting [3]) is 54 µM; in the experiment with HH4 (Homo sapiens, Hepatocyte, 24 h) it was greater than 200 µM; in the experiment on HH4 (Homo sapiens, Hepatocyte, 48 h), 96 ± 5.5 µM; with HH4 (Homo sapiens, Hepatocyte, 72 h), 63.7 ± 3.7 µM.
For `Oc1ccc([C@H]2Oc3cc(O)cc(/C=C/c4ccc5c(c4)[C@@H](c4cc(O)cc6c4[C@H](c4cc(O)cc(O)c4)[C@@H](c4ccc(O)cc4)O6)[C@H](c4ccc(O)cc4)O5)c3[C@@H]2c2cc(O)cc(O)c2)cc1` [R-Viniferin], the half-inhibitory concentration (IC50) with Hep3B (Homo sapiens, Hep3B, 24 h) is greater than 200 µM; in the experiment on Hep3B (Homo sapiens, Hep3B, 48 h) it was 137 ± 19.8 µM; with Hep3B (Homo sapiens, Hep3B, 72 h) it was 135 ± 35.7 µM; in the experiment with HepG2 (setting [1]) it was greater than 200 µM; with HepG2 (setting [2]), greater than 200 µM; in the experiment with HepG2 (setting [3]) it was 192 ± 27.1 µM.
`Oc1ccc(/C=C/c2cc(O)cc(O)c2)cc1` [trans-Resveratrol, reference compound]: the IC50 in the experiment on Hep3B (Homo sapiens, Hep3B, 24 h) was greater than 200 µM; in the experiment with Hep3B (Homo sapiens, Hep3B, 48 h) it was 42 ± 11.6 µM; in the experiment on Hep3B (Homo sapiens, Hep3B, 72 h), 21 ± 16.8 µM; with HepG2 (72 h), 30.3 ± 4.4 µM; in the experiment with HepG2 (setting [1]), greater than 200 µM; with HepG2 (setting [2]) it was 40.3 ± 9.3 µM. For the same molecule, the concentration for half-maximal inhibition (IC50) with HepG2 (setting [3]) is 30 µM; with HH4 (Homo sapiens, Hepatocyte, 24 h), greater than 200 µM; in the experiment on HH4 (Homo sapiens, Hepatocyte, 48 h) it was 135 ± 9 µM; in the experiment with HH4 (Homo sapiens, Hepatocyte, 72 h), 93 ± 16.1 µM.
In the case of `Oc1ccc([C@H]2c3c(O)cc(O)cc3[C@H]3c4c(cc(O)cc4[C@@H]2[C@H]2c4cc(O)cc5c4[C@H](c4cc(O)cc(O)c4[C@@H]2c2ccc(O)cc2)[C@@H](c2ccc(O)cc2)O5)O[C@@H]3c2ccc(O)cc2)cc1` [Hopeaphenol], the IC50 is 13.1 ± 4.1 µM with Hep3B (72 h); greater than 200 µM in the experiment on Hep3B (Homo sapiens, Hep3B, 24 h); 16.8 ± 2.3 µM with Hep3B (Homo sapiens, Hep3B, 48 h); 13 µM with Hep3B (Homo sapiens, Hep3B, 72 h); 24.4 ± 2 µM with HepG2 (72 h); greater than 200 µM in the experiment with HepG2 (setting [1]). Further, the IC50 in the experiment on HepG2 (setting [2]) was 27 ± 3.3 µM; with HepG2 (setting [3]), 24 µM; with HH4 (Homo sapiens, Hepatocyte, 24 h), greater than 200 µM; in the experiment with HH4 (Homo sapiens, Hepatocyte, 48 h), 92 ± 38 µM; in the experiment on HH4 (Homo sapiens, Hepatocyte, 72 h), 37.6 ± 13 µM.
Take `Oc1ccc([C@H]2c3c(O)cc(O)cc3[C@H]3c4c(cc(O)cc4[C@@H]2O)O[C@@H]3c2ccc(O)cc2)cc1` [Ampelopsin A]: the IC50 in the experiment on Hep3B (Homo sapiens, Hep3B, 24 h) was greater than 200 µM; in the experiment on Hep3B (Homo sapiens, Hep3B, 48 h), 148 ± 14.4 µM; in the experiment with Hep3B (Homo sapiens, Hep3B, 72 h), 109 ± 7.3 µM; with HepG2 (72 h), 75.5 ± 21.5 µM; in the experiment with HepG2 (setting [1]), greater than 200 µM; in the experiment on HepG2 (setting [2]) it was 98.6 ± 24.9 µM. Further, the IC50 is 76 µM in the experiment on HepG2 (setting [3]); greater than 200 µM in the experiment on HH4 (Homo sapiens, Hepatocyte, 24 h); 178 ± 67.8 µM with HH4 (Homo sapiens, Hepatocyte, 48 h); 134 ± 34.7 µM with HH4 (Homo sapiens, Hepatocyte, 72 h).
